Source: the NIST ThermoML archive (doi:10.1016/j.jct.2007.11.011)
± gives the expanded uncertainty stated by the source.

Test: xn = mol fraction of the nth substance listed
Details: Liquid

## CCOS(=O)(=O)[O-].CCn1cc[n+](C)c1 [1-ethyl-3-methylimidazolium ethyl sulfate] + CO
293.15 K, 25000 kPa, x1 = 0.7289
  mass density: 1221.94 ± 2 kg/m3
293.15 K, 25000 kPa, x1 = 0.8521
  mass density: 1236.51 ± 2.1 kg/m3
293.15 K, 25000 kPa, x1 = 0.9397
  mass density: 1245.42 ± 2.2 kg/m3
293.15 K, 30000 kPa, x1 = 0.04781
  mass density: 907.55 ± 1.1 kg/m3
293.15 K, 30000 kPa, x1 = 0.1026
  mass density: 979.27 ± 0.54 kg/m3
293.15 K, 30000 kPa, x1 = 0.1977
  mass density: 1060.75 ± 0.81 kg/m3
293.15 K, 30000 kPa, x1 = 0.2432
  mass density: 1088.79 ± 1 kg/m3
293.15 K, 30000 kPa, x1 = 0.3026
  mass density: 1119.01 ± 1.3 kg/m3
293.15 K, 30000 kPa, x1 = 0.3887
  mass density: 1151.75 ± 1.6 kg/m3
293.15 K, 30000 kPa, x1 = 0.485
  mass density: 1179.09 ± 1.9 kg/m3
293.15 K, 30000 kPa, x1 = 0.589
  mass density: 1201.26 ± 2.1 kg/m3
293.15 K, 30000 kPa, x1 = 0.7289
  mass density: 1223.92 ± 2.3 kg/m3
293.15 K, 30000 kPa, x1 = 0.8521
  mass density: 1238.43 ± 2.4 kg/m3
293.15 K, 30000 kPa, x1 = 0.9397
  mass density: 1247.34 ± 2.5 kg/m3
293.15 K, 35000 kPa, x1 = 0.04781
  mass density: 910.71 ± 1.1 kg/m3
293.15 K, 35000 kPa, x1 = 0.1026
  mass density: 982.13 ± 0.55 kg/m3
293.15 K, 35000 kPa, x1 = 0.1977
  mass density: 1063.26 ± 0.89 kg/m3
293.15 K, 35000 kPa, x1 = 0.2432
  mass density: 1091.21 ± 1.1 kg/m3
293.15 K, 35000 kPa, x1 = 0.3026
  mass density: 1121.32 ± 1.5 kg/m3
293.15 K, 35000 kPa, x1 = 0.3887
  mass density: 1153.96 ± 1.8 kg/m3
293.15 K, 35000 kPa, x1 = 0.485
  mass density: 1181.21 ± 2.1 kg/m3
293.15 K, 35000 kPa, x1 = 0.589
  mass density: 1203.3 ± 2.3 kg/m3
293.15 K, 35000 kPa, x1 = 0.7289
  mass density: 1225.88 ± 2.6 kg/m3
293.15 K, 35000 kPa, x1 = 0.8521
  mass density: 1240.37 ± 2.7 kg/m3
293.15 K, 35000 kPa, x1 = 0.9397
  mass density: 1249.28 ± 2.8 kg/m3
298.15 K, 100 kPa, x1 = 0.04781
  mass density: 881.9 ± 0.59 kg/m3
298.15 K, 100 kPa, x1 = 0.1026
  mass density: 956.23 ± 0.49 kg/m3
298.15 K, 100 kPa, x1 = 0.1977
  mass density: 1040.54 ± 0.5 kg/m3
298.15 K, 100 kPa, x1 = 0.2432
  mass density: 1069.25 ± 0.53 kg/m3
298.15 K, 100 kPa, x1 = 0.3026
  mass density: 1100.31 ± 0.57 kg/m3
298.15 K, 100 kPa, x1 = 0.3887
  mass density: 1134.01 ± 0.63 kg/m3
298.15 K, 100 kPa, x1 = 0.485
  mass density: 1162.03 ± 0.67 kg/m3
298.15 K, 100 kPa, x1 = 0.589
  mass density: 1184.83 ± 0.71 kg/m3
298.15 K, 100 kPa, x1 = 0.7289
  mass density: 1207.95 ± 0.75 kg/m3
298.15 K, 100 kPa, x1 = 0.8521
  mass density: 1222.76 ± 0.78 kg/m3
298.15 K, 100 kPa, x1 = 0.9397
  mass density: 1231.87 ± 0.8 kg/m3
298.15 K, 2500 kPa, x1 = 0.04781
  mass density: 883.82 ± 0.63 kg/m3
298.15 K, 2500 kPa, x1 = 0.1026
  mass density: 957.85 ± 0.5 kg/m3
298.15 K, 2500 kPa, x1 = 0.1977
  mass density: 1041.91 ± 0.52 kg/m3
298.15 K, 2500 kPa, x1 = 0.2432
  mass density: 1070.58 ± 0.56 kg/m3
298.15 K, 2500 kPa, x1 = 0.3026
  mass density: 1101.59 ± 0.61 kg/m3
298.15 K, 2500 kPa, x1 = 0.3887
  mass density: 1135.21 ± 0.68 kg/m3
298.15 K, 2500 kPa, x1 = 0.485
  mass density: 1163.15 ± 0.74 kg/m3
298.15 K, 2500 kPa, x1 = 0.589
  mass density: 1185.86 ± 0.79 kg/m3
298.15 K, 2500 kPa, x1 = 0.7289
  mass density: 1208.92 ± 0.84 kg/m3
298.15 K, 2500 kPa, x1 = 0.8521
  mass density: 1223.17 ± 0.88 kg/m3
298.15 K, 2500 kPa, x1 = 0.9397
  mass density: 1232.94 ± 0.9 kg/m3
298.15 K, 5000 kPa, x1 = 0.04781
  mass density: 885.81 ± 0.67 kg/m3
298.15 K, 5000 kPa, x1 = 0.1026
  mass density: 959.6 ± 0.51 kg/m3
298.15 K, 5000 kPa, x1 = 0.1977
  mass density: 1043.39 ± 0.53 kg/m3
298.15 K, 5000 kPa, x1 = 0.2432
  mass density: 1071.99 ± 0.58 kg/m3
298.15 K, 5000 kPa, x1 = 0.3026
  mass density: 1102.92 ± 0.66 kg/m3
298.15 K, 5000 kPa, x1 = 0.3887
  mass density: 1136.46 ± 0.74 kg/m3
298.15 K, 5000 kPa, x1 = 0.485
  mass density: 1164.36 ± 0.82 kg/m3
298.15 K, 5000 kPa, x1 = 0.589
  mass density: 1187.01 ± 0.88 kg/m3
298.15 K, 5000 kPa, x1 = 0.7289
  mass density: 1210.02 ± 0.94 kg/m3
298.15 K, 5000 kPa, x1 = 0.8521
  mass density: 1224.62 ± 0.99 kg/m3
298.15 K, 5000 kPa, x1 = 0.9397
  mass density: 1234.01 ± 1 kg/m3
298.15 K, 10000 kPa, x1 = 0.04781
  mass density: 889.63 ± 0.76 kg/m3
298.15 K, 10000 kPa, x1 = 0.1026
  mass density: 962.97 ± 0.53 kg/m3
298.15 K, 10000 kPa, x1 = 0.1977
  mass density: 1046.26 ± 0.57 kg/m3
298.15 K, 10000 kPa, x1 = 0.2432
  mass density: 1074.73 ± 0.65 kg/m3
298.15 K, 10000 kPa, x1 = 0.3026
  mass density: 1105.51 ± 0.75 kg/m3
298.15 K, 10000 kPa, x1 = 0.3887
  mass density: 1138.92 ± 0.87 kg/m3
298.15 K, 10000 kPa, x1 = 0.485
  mass density: 1166.69 ± 0.98 kg/m3
298.15 K, 10000 kPa, x1 = 0.589
  mass density: 1189.25 ± 1.1 kg/m3
298.15 K, 10000 kPa, x1 = 0.7289
  mass density: 1212.17 ± 1.2 kg/m3
298.15 K, 10000 kPa, x1 = 0.8521
  mass density: 1226.79 ± 1.3 kg/m3
298.15 K, 10000 kPa, x1 = 0.9397
  mass density: 1236.07 ± 1.3 kg/m3
298.15 K, 15000 kPa, x1 = 0.04781
  mass density: 893.33 ± 0.84 kg/m3
298.15 K, 15000 kPa, x1 = 0.1026
  mass density: 966.22 ± 0.54 kg/m3
298.15 K, 15000 kPa, x1 = 0.1977
  mass density: 1049.05 ± 0.61 kg/m3
298.15 K, 15000 kPa, x1 = 0.2432
  mass density: 1077.43 ± 0.72 kg/m3
298.15 K, 15000 kPa, x1 = 0.3026
  mass density: 1108.07 ± 0.86 kg/m3
298.15 K, 15000 kPa, x1 = 0.3887
  mass density: 1141.32 ± 1 kg/m3
298.15 K, 15000 kPa, x1 = 0.485
  mass density: 1168.99 ± 1.2 kg/m3
298.15 K, 15000 kPa, x1 = 0.589
  mass density: 1191.45 ± 1.3 kg/m3
298.15 K, 15000 kPa, x1 = 0.7289
  mass density: 1214.29 ± 1.4 kg/m3
298.15 K, 15000 kPa, x1 = 0.8521
  mass density: 1228.88 ± 1.5 kg/m3
298.15 K, 15000 kPa, x1 = 0.9397
  mass density: 1238.12 ± 1.6 kg/m3
298.15 K, 20000 kPa, x1 = 0.04781
  mass density: 896.87 ± 0.92 kg/m3
298.15 K, 20000 kPa, x1 = 0.1026
  mass density: 969.37 ± 0.55 kg/m3
298.15 K, 20000 kPa, x1 = 0.1977
  mass density: 1051.78 ± 0.66 kg/m3
298.15 K, 20000 kPa, x1 = 0.2432
  mass density: 1080.03 ± 0.8 kg/m3
298.15 K, 20000 kPa, x1 = 0.3026
  mass density: 1110.55 ± 0.98 kg/m3
298.15 K, 20000 kPa, x1 = 0.3887
  mass density: 1143.68 ± 1.2 kg/m3
